Experimental data published in PMC7037731, “Synthesis, Anticancer Activity, and Preliminary Pharmacokinetic Evaluation of 4,4-Disubstituted Curcuminoid 2,2-bis(Hydroxymethyl)Propionate Derivatives” (Molecules, 2020).
Converted amounts (≈) assume the structure as drawn.

Experiments:
[1] = tested on: HCT-116; assay: MTT anti-proliferative assay, HCT-116; assay type: cell-based; conditions: Homo sapiens, 48 h treatment, MTT, mean ± SD of at least three experiments, read-out: IC50 (M)/ 48 h HCT-116
Experimental: (§1) These compounds, along with all newly synthesized compounds, were screened for anti-proliferative activity against the same TNBC and colon cancer cell lines.
(§2) Cell viability was evaluated by measuring the reduction in MTT to yield blue formazan. Cells were cultured in 96-well plates, allowed to attach overnight, and then treated with compounds. After treatment, MTT solution (1 mg/mL) was added to each well, and plates were incubated for another 2 h. Medium was removed, blue formazan was dissolved in DMSO, and the absorbance was read at 570 nm by Multiskan Go spectrophotometer (Thermo Scientific, Madison, WI, USA).

[2] = tested on: MDA-MB-231; assay: MTT anti-proliferative assay, MDA-MB-231; assay type: cell-based; conditions: Homo sapiens, 48 h treatment, MTT, mean ± SD of at least three experiments, read-out: IC50 (M)/ 48 h MDA-MB-231
Experimental: as §1, §2

[3] = tested on: MDA-MB-231; conditions: MDA-MB-231 in vitro and in vivo; cited from earlier work
[4] = Visible signs of toxicity and behavioral changes in xenograft mice; assay type: in vivo; conditions: 50, 100, 150 mg/kg p.o. daily, 30 days, vs control groups
Experimental: (§3) The therapeutic effect of 2 was evaluated on HCT-116 colon tumor xenograft bearing nude mice. The oral administration of 2 at doses of 50, 100, or 150 mg/kg bw per day were performed after tumors reached approximately 100 mm^3 and continued for 30 consecutive days. 5-Fluorouracil treatment (30 mg/kg bw, i.p., QOD) was used as a positive control. […] There was a clear dose- and time-dependent inhibitory effect on tumor size in the other two groups, in which at 50 and 150 mg/kg doses the volume of the HCT-116 colon tumor was reduced to 73% and 40% of the control, respectively (Figure 2). The body weight of the mice was recorded prior to dosing every 3 d, and the average body weight of each group is depicted in Figure 3. Otherwise, they were monitored for visible signs of toxicity and behavioral changes 1 h after each administration.
Male nu/nu mice (5 weeks old) from National Laboratory Animal Center (Taipei, Taiwan) were maintained under the procedures and guidelines provided by the Institutional Animal Care and Use Committee of the National Health Research Institutes (Taipei, Taiwan). […] Tumor size and mouse body weight were measured once every 3 days, and tumor volume (mm^3) was calculated using the equation: length × (width)^2 × 0.5. […]

[5] = tested on: HCT-116 colon tumor xenograft; assay: In vivo antitumor activity, HCT-116 colon tumor xenograft bearing nude mice; parameters: species or system nu/nu mice; conditions: 30 days
Experimental: as §3
Male nu/nu mice (5 weeks old) from National Laboratory Animal Center (Taipei, Taiwan) were maintained under the procedures and guidelines provided by the Institutional Animal Care and Use Committee of the National Health Research Institutes (Taipei, Taiwan). All experiments were supervised under the Institutional Animal Care and Use Committee, China Medical University, Taichung, Taiwan with a protocol number ([…]-2018-278). HCT-116 colon cancer cells (5 × 10^6 cells per mouse) were suspended in 0.1 mL of Matrigel solution (50% v/v Matrigel in PBS) and inoculated into the mammary fat pads of the mice. When the tumor size reached 100 mm^3, the tumor-bearing mice were randomly divided into four groups for treating with vehicle (5% ethanol and 10% tween 80 in 85% saline, 0.1 mL) and 2 (p.o. 50, 100 and 150 mg/kg/day body weight) respectively. Compounds was administered via oral route daily for 30 days. 5-Fluorouracil-treated group (i.p. 30 mg/kg) is the positive control. Tumor size and mouse body weight were measured once every 3 days, and tumor volume (mm^3) was calculated using the equation: length × (width)^2 × 0.5. At the end of experiments, mice were sacrificed.

[6] = Solubility in aqueous dosing vehicle; assay type: physicochemical; conditions: aqueous with cosolvent or surfactant or cyclodextrin, 5% ethanol, 10% Tween 80, 85% saline, read-out: maximum solubility in aqueous vehicle
Source text: Subsequently, the latter would be converted into glucuronide 22 and sulfate 23 through the phase II metabolism conjugation of hydrogenated products 18, 19, 20, and 21 via the phase I metabolic pathway (Scheme 6). To verify our assumptions, the preliminary pharmacokinetic evaluation of 2 was executed.

[7] = Preliminary pharmacokinetic evaluation of 2 in rat (LC-MS of serum); assay type: in vivo, Sprague-Dawley rats; conditions: for time of maximum blood content: LC signal in serum
Experimental: Male Sparague-Dawley rat (420 g) from National Laboratory Animal Center, Taipei, Taiwan were maintained under the regulations of the Institutional Animal Care and Use Committee of the National Health Research Institutes, Taiwan. The animal studies were supervised under the Institutional Animal Care and Use Committee, China Medical University, Taichung, Taiwan with a protocol number ([…]-2018-278). Rat was fasted for 16 h before dosing. Compound 2 was dissolved in aqueous solution (5% ethanol and 10% Tween80 in 85% saline) and administrated via oral gavage at a dosage of 100 mg/kg. Blood samples were collected at selected time points (5, 10, 20, 30, 60, 120, 240, 360, 480 min) post dose and centrifuged at 10,000× g for 15 min to provide serum samples, which were stored at −80 °C until subsequent sample extraction.
Methods for the preparation of 2, 2m, 18, 19, 20 and 21 serum sample are delineated as follows. 50 μL of acetate buffer (pH 5.0), 50 μL of ascorbic acid (200 mg/mL), and 50 μL of 0.1 N HCl solution was added into 100 μL of serum which was collected at different time points). The resulting mixture was partitioned with 250 μL of ethyl acetate (containing 5.0 μg/mL of butyl paraben as the internal standard). After centrifuging at 10,000× g for 15 min, the upper organic layer was separated and dried under nitrogen gas to provide the crude sample, which was diluted with an appropriate volume of acetonitrile for LC-MS analysis.
The amount of 22 and 23 were analyzed by the serum samples before and after treatment with enzyme solution. The procedure for enzyme treatment is shown as follows. 100 μL of serum was treated with enzyme solution (50 μL; containing 1000 units/mL of sulfatase and 39861 units/mL of β-glucuronidase in pH 5.0 acetate buffer), 50 μL of 0.1 N HCl solution and 50 μL of ascorbic acid (200 mg/mL) in the light protected tubes at 37 °C. For optimal hydrolysis efficiency, the incubation time was decided as 2 h based on a previous study. The mixture was then partitioned with 250 μL of ethyl acetate (containing 5.0 μg/mL of butyl paraben as the internal standard). After centrifuging at 10,000× g for 15 min, the upper organic layer was separated and dried under nitrogen gas to provide the crude sample, which was diluted with an appropriate volume of acetonitrile for LC analysis.
All samples obtained from in vivo pharmacokinetic studies were assayed using LC-MS for the analysis of 2 and the corresponding metabolites. The Waters ACQUITY UPLC I-Class system (Waters Corp., Milford, MA, USA) was utilized. System control and all of the mass spectrometry data were acquired and analyzed using UNIFI software (Waters Corp.). For sample separation, the LC was equipped with an Inertsil ph-3 (50 × 2.1 mm, 2 μm particle size) RPLC column (GL Sciences Inc. Tokyo, Japan) in which the column temperature was held at 35 °C, injection volume was 7.5 μL, and the flow rate of the mobile phase was 200 μL/min. The elution started from 50% mobile phase A (ultrapure water + 0.1% formic acid) and 50% mobile phase B (100% methanol + 0.1% formic acid), held at 50% B for 0.5 min, raised to 95% B in 5.5 min, held at 95% B for 1 min, and then lowered to 50% B in 1 min. Before sample injection, the column was equilibrated by pumping 50% B for 4 min. The analysis of target compounds for all samples was performed by using a Waters Vion IMS QTof mass spectrometer. Data were acquired in the electrospray ionization (ESI) positive ion MS^E mode with range of m/z 100–1000 and 0.5 s scan time. Parameters were set as capillary voltage of 2.5 kV, source temperature of 100 °C, desolvation temperature at 250 °C, cone gas maintained at 10 L/h, desolvation gas maintained at 600 L/h. The acquired m/z and isotope pattern were processed by UNIFI software to illustrate chromatogram, and the amounts of compound was calculated with the integrated peak area of signals.

[8] = Chemical stability on storage; assay type: physicochemical; conditions: storage at 4 °C; DMSO-d6 1 week at room temperature
Source text: The low stability of 9 may have been due to self- or cross-hydrolysis, such that the two hydroxyl groups at the C-4 alkyl chains cleaved the ester linkage of the 2,2-bis(hydroxymethyl)propionate group. […] Therefore, we modified the hydroxymethyl group of 9 and were able to produce compounds 10 and 11. To prepare 10, compound 9 was acetylated with acetyl chloride in the presence of Et3N, and the resulting di-acetylation intermediate was hydrolyzed by hydrochloric acid. Compound 11 was obtained with an overall yield of 5% following a similar three-step reaction modified for methylation. The stability of these two products at room temperature may have been due to the conversion of the labile hydroxyl groups of the C-4 alkyl chains of 10 and 11 into non-nucleophilic […] groups, respectively, which prevented degradation.

| SMILES | IC50 [1] [M] | IC50 [2] [M] | potency relative to curcumin (times) [3] | adverse effects (visible signs of toxicity, behavioral changes) [4] | tumor volume as % of the control ([5]; 50 mg/kg p.o. daily) [%] | tumor volume reduction ([5]; 50 mg/kg p.o. daily, vs control) [%] | tumor volume reduction / tumor inhibition ratio ([5]; 100 mg/kg p.o. daily, vs control) [%] | tumor volume as % of the control ([5]; 150 mg/kg p.o. daily) [%] | tumor volume reduction ([5]; 150 mg/kg p.o. daily, vs control) [%] | solubility [6] [mg/mL] | time of second highest blood content ([7]; after oral 2 at 100 mg/kg) [min] | time of third highest blood content ([7]; after oral 2 at 100 mg/kg) [min] | time of maximum blood content ([7]; after oral 2 at 100 mg/kg) [min] | plasma stability compared to curcumin ([7]; oral 100 mg/kg) | melting point [°C] | time from which the metabolite emerged in blood ([7]; after oral 2 at 100 mg/kg) [min] | chemical stability [8] |
| --- | --- | --- | --- | --- | --- | --- | --- | --- | --- | --- | --- | --- | --- | --- | --- | --- | --- |
| COc1cc(/C=C/C(=O)/C=C(O)/C=C/c2ccc(OC(=O)C(C)(CO)CO)c(OC)c2)ccc1OC(=O)C(C)(CO)CO [Compound 1, curcumin di-O-2,2-bis(hydroxymethyl)propionate] | 6.25e-06 ± 6e-07 | 3.06e-06 ± 1.8e-07 | 8 to 10 |  |  |  |  |  |  |  |  |  |  |  |  |  |  |
| COc1cc(/C=C/C(=O)C(C)(C)C(=O)/C=C/c2ccc(OC(=O)C(C)(CO)CO)c(OC)c2)ccc1OC(=O)C(C)(CO)CO [Compound 2] | 3.1e-06 ± 2.9e-07 | 2.25e-06 ± 1e-07 |  | No obvious adverse effects | 73 | 27 | 45 | 40 | 60 | ~200 (≈ 318 mM) | 120 | 360 | 20 | superior plasma stability |  |  |  |
| COc1cc(/C=C/C(=O)C(C)(C)C(=O)/C=C/c2ccc(O)c(OC)c2)ccc1O [Compound 2m, (1E,6E)-1,7-bis(4-Hydroxy-3-methoxyphenyl)-4,4-dimethylhepta-1,6-diene-3,5-dione] | 2.17e-06 ± 1.6e-07 | 4.17e-06 ± 1.5e-07 |  |  |  |  |  |  |  |  |  |  | 120 |  | 104 to 106 | 10 |  |
| COc1cc(/C=C/C(=O)C(CO)(CO)C(=O)/C=C/c2ccc(OC(=O)C(C)(CO)CO)c(OC)c2)ccc1OC(=O)C(C)(CO)CO [Compound 9, [(1E,6E)-4,4-bis(Hydroxymethyl)-3,5-dioxohepta-1,6-diene-1,7-diyl]bis(2-methoxy-4,1-phenylene) bis[3-hydroxy-2-(hydroxymethyl)-2-methylpropanoate]] | > 0.0001 | > 0.0001 |  |  |  |  |  |  |  |  |  |  |  |  |  |  | unstable |
